# Legend:
# [1] = system: maltase (carbohydrase derived from rabbit small intestine mucous membrane); experiment: Action to inhibit the hydrolytic activity of homogenate prepared from rabbit small intestine mucous membrane: maltase inhibition; assay type: biochemical; settings: for Maltase inhibition rate: substrate maltose 20 mM, pH 6.8, 37° C., 15 minutes
# Method: (§1) (Action to inhibit the hydrolytic activity of homogenate prepared from rabbit small intestine mucous membrane to carbohydrate)
# (§2) A native kind of white rabbits (weight: 3.0-3.5 kg) were sacrificed by exsanguination to take out their small intestines.
# (§3) After freezing and thawing the small intestines thus taken out, they were homogenized in a 5 mM EDTA buffer (pH: 7.0) and subjected to centrifugation for 60 minutes at 60,000×g. Precipitate thus formed was collected and suspended again in a 10 mM potassium phosphate buffer (pH: 7.0), thereby obtaining a crude enzyme suspension.
# (§4) Sucrose (20 mM) and maltose (20 mM) were used as substrates.
# (§5) Each reaction mixture was formulated so as to contain 350 microliters of a 100 mM maleate buffer (pH: 6.8), 100 microliters of a substrate solution, 50 microliters of the crude enzyme suspension and 50 microliters of a test solution. Substances to be tested were separately dissolved in a maleate buffer (pH: 6.8) before use.
# (§6) Respective reactions were conducted for 15 minutes at 37° C.
# [2] = target: T1, sucrase (carbohydrase derived from rabbit small intestine mucous membrane) (Oryctolagus cuniculus, UniProt P07768); experiment: Action to inhibit the hydrolytic activity of homogenate prepared from rabbit small intestine mucous membrane: sucrase inhibition; assay type: biochemical; settings: for inhibition at 250 µg/mL / inhibition at 500 µg/mL / inhibition at 1000 µg/mL / inhibition at 2000 µg/mL: 0.25 h, substrate sucrose 20 mM, pH 6.8, 37° C., 15 minutes, read-out: Sucrase inhibition rate; for inhibition at 250 µg/mL: 25 mg/dl; for inhibition at 500 µg/mL: 50 mg/dl; for inhibition at 1000 µg/mL: 100 mg/dl; for inhibition at 2000 µg/mL: 200 mg/dl
# T1 construct: suspended again in a 10 mM potassium phosphate buffer (pH: 7.0), thereby obtaining a crude enzyme suspension; from tissue; host or cells: rabbit small intestine (title: mucous membrane), homogenate, 60,000×g precipitate
# T1 sequence (P07768 1008-1827 limits assumed): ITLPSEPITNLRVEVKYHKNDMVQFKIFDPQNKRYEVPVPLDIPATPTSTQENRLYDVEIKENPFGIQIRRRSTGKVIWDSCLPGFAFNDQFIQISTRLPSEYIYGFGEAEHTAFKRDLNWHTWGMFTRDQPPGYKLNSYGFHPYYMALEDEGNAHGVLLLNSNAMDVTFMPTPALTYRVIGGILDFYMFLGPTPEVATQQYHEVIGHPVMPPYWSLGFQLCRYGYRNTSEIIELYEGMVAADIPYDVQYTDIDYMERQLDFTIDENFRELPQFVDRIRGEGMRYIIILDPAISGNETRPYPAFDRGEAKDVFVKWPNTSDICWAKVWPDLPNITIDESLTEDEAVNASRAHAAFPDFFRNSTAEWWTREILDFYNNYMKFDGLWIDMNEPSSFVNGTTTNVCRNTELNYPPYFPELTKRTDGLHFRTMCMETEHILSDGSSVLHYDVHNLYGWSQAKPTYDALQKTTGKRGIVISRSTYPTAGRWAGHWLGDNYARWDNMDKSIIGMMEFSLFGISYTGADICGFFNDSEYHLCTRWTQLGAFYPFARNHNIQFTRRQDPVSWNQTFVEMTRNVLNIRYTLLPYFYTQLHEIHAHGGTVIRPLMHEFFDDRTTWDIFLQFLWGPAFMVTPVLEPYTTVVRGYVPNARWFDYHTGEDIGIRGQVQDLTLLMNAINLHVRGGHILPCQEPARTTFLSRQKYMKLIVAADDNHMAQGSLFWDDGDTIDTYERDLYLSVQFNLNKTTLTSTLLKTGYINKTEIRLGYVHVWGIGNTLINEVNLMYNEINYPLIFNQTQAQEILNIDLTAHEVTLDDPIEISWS
# T1 sequence (P07768 2-1007 partner limits assumed): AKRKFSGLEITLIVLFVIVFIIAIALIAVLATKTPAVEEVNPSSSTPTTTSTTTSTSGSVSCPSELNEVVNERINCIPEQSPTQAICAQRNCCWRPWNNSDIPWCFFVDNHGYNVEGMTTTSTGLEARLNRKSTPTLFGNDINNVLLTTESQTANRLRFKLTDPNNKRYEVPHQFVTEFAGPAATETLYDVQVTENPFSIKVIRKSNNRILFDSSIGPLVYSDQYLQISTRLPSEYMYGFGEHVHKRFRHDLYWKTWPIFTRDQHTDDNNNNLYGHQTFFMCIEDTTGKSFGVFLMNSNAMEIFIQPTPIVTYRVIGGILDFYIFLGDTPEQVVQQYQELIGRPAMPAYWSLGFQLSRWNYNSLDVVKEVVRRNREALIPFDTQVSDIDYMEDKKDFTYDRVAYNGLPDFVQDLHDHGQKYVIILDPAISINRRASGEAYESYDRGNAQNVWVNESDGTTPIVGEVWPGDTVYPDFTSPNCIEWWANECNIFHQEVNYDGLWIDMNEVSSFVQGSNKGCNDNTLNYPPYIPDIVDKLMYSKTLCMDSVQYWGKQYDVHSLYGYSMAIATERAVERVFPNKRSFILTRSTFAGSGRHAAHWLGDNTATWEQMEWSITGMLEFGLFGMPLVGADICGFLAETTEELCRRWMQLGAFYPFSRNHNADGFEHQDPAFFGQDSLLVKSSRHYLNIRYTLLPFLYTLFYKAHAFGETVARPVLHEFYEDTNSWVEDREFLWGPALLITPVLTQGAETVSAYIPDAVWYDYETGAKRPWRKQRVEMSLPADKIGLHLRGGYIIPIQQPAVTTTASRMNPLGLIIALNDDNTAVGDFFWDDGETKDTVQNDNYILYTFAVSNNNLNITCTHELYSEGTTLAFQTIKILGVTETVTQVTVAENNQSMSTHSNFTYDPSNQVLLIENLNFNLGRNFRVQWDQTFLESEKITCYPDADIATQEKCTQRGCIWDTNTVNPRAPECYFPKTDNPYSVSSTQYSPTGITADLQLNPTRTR
# Method: as §1, §2, §3, §4, §5, §6
# [3] = system: rise in blood sugar; experiment: Action to depress the rise in blood sugar after sucrose loading to mice; assay type: in vivo, ICR male mice; settings: for Rise in blood sugar / action to depress the rise in blood sugar due to sucrose loading (in words): sucrose 1 g/kg; for Rise in blood sugar: average ± standard error; for action to depress the rise in blood sugar due to sucrose loading (in words): orally 25, 50 and 100 mg/kg (L-arabinose, D-xylose) or 100 mg/kg (others); for action to depress the rise in blood sugar for sucrose or starch loading (in words): summary statement
# [4] = dose 100 mg/kg oral, after 30 min.
# [5] = dose 100 mg/kg oral, after 60 min.
# [6] = dose 100 mg/kg oral, after 120 min.
SMILES,Maltase inhibition rate ([1]; 25 mg/dl) [%],Maltase inhibition rate ([1]; 50 mg/dl) [%],Maltase inhibition rate ([1]; 100 mg/dl) [%],Maltase inhibition rate ([1]; 200 mg/dl) [%],sucrase-inhibiting action (in words) [2],inhibition at 250 µg/mL [2] [%],inhibition at 500 µg/mL [2] [%],inhibition at 1000 µg/mL [2] [%],inhibition at 2000 µg/mL [2] [%],maltase-inhibiting action (in words) [1],"Rise in blood sugar [3, 4]","Rise in blood sugar [3, 5]","Rise in blood sugar [3, 6]",action to depress the rise in blood sugar due to sucrose loading (in words) [3],action to depress the rise in blood sugar for sucrose or starch loading (in words) [3],"Rise in blood sugar ([3]; dose 25 mg/kg oral, after 30 min.)","Rise in blood sugar ([3]; dose 25 mg/kg oral, after 60 min.)","Rise in blood sugar ([3]; dose 50 mg/kg oral, after 30 min.)","Rise in blood sugar ([3]; dose 50 mg/kg oral, after 60 min.)","Rise in blood sugar ([3]; dose 50 mg/kg oral, after 120 min.)"
"O=C(CO)[C@H](O)[C@H](O)CO [D-Ribulose, D-ribulose]",,,,20.1,inhibiting actions second to these,,,,21.7,inhibiting actions second to these,65.6 Δmg/dl,56.3 Δmg/dl,28.1 Δmg/dl,significantly depressed,effective action to depress the rise in blood sugar,,,,,
"O=C[C@@H](O)[C@@H](O)[C@H](O)CO [D-Lyxose, D-lyxose]",,,,22.3,inhibiting actions second to these,,,,23.4,inhibiting actions second to these,62.7 Δmg/dl,57.0 Δmg/dl,,significantly depressed,effective action to depress the rise in blood sugar,,,,,
"O=C(CO)[C@@H](O)[C@@H](O)[C@H](O)CO [D-Tagatose, D-tagatose]",12.5,17.7,30.3,33.9,strong sucrase-inhibiting action,8.9,15.7,30,36.6,strong sucrase-inhibiting action and maltase-inhibiting action,60.7 Δmg/dl,44.4 Δmg/dl,26.3 Δmg/dl,significantly depressed,effective action to depress the rise in blood sugar,,,,,
"O=C[C@H](O)[C@H](O)[C@H](O)CO [D-Ribose, D-ribose]",13.5,18.4,33.3,46.5,strong sucrase-inhibiting action,13.7,17.8,34,33.4,strong sucrase-inhibiting action and maltase-inhibiting action,61.2 Δmg/dl,48.5 Δmg/dl,,significantly depressed,effective action to depress the rise in blood sugar,,,,,
"O=CC[C@@H](O)[C@@H](O)[C@H](O)CO [2-Deoxy-D-galactose, 2-deoxy-D-galactose]",11.2,13.4,19.3,32.8,strong sucrase-inhibiting action,13.7,15.5,21.6,34.8,strong sucrase-inhibiting action and maltase-inhibiting action,61.1 Δmg/dl,50.8 Δmg/dl,26.2 Δmg/dl,significantly depressed,effective action to depress the rise in blood sugar,,,,,

# The next lines start with results.
Maltase inhibition rate ([1]; 25 mg/dl) [%],Maltase inhibition rate ([1]; 50 mg/dl) [%],Maltase inhibition rate ([1]; 100 mg/dl) [%],Maltase inhibition rate ([1]; 200 mg/dl) [%],sucrase-inhibiting action (in words) [2],inhibition at 250 µg/mL [2] [%],inhibition at 500 µg/mL [2] [%],inhibition at 1000 µg/mL [2] [%],inhibition at 2000 µg/mL [2] [%],SMILES,maltase-inhibiting action (in words) [1],"Rise in blood sugar [3, 4]","Rise in blood sugar [3, 5]","Rise in blood sugar [3, 6]",action to depress the rise in blood sugar due to sucrose loading (in words) [3],action to depress the rise in blood sugar for sucrose or starch loading (in words) [3],"Rise in blood sugar ([3]; dose 25 mg/kg oral, after 30 min.)","Rise in blood sugar ([3]; dose 25 mg/kg oral, after 60 min.)","Rise in blood sugar ([3]; dose 50 mg/kg oral, after 30 min.)","Rise in blood sugar ([3]; dose 50 mg/kg oral, after 60 min.)","Rise in blood sugar ([3]; dose 50 mg/kg oral, after 120 min.)"
16.4,18.4,24.8,31.0,strong sucrase-inhibiting action,11.6,16.2,32.8,30.7,"C[C@H](O)[C@@H](O)[C@@H](O)[C@H](O)C=O [L-Fucose, L-fucose]",strong sucrase-inhibiting action and maltase-inhibiting action,62.0 Δmg/dl,44.4 Δmg/dl,26.3 Δmg/dl,significantly depressed,effective action to depress the rise in blood sugar,,,,,
29.2,36.4,44.3,53.1,strong sucrase-inhibiting action,28.5,35.5,49.5,59.8,"O=C[C@H](O)[C@@H](O)[C@H](O)CO [D-Xylose, D-xylose]",strong sucrase-inhibiting action and maltase-inhibiting action,38.2 Δmg/dl,45.2 Δmg/dl,23.4 Δmg/dl,depressed in dependence on the dose,effective action to depress the rise in blood sugar,76.3 Δmg/dl,55.4 Δmg/dl,62.5 Δmg/dl,47.3 Δmg/dl,24.0 Δmg/dl
,,,19.4,inhibiting actions second to these,,8,11.9,24.5,"O=C[C@@H](O)[C@H](O)[C@@H](O)CO [L-Xylose, L-xylose]",inhibiting actions second to these,66.3 Δmg/dl,53.2 Δmg/dl,,significantly depressed,effective action to depress the rise in blood sugar,,,,,
,,,11.9,inhibiting actions second to these,,,,19.9,"O=C(CO)[C@@H](O)[C@H](O)CO [D-Xylulose, D-xylulose]",inhibiting actions second to these,67.3 Δmg/dl,59.7 Δmg/dl,27.5 Δmg/dl,significantly depressed,effective action to depress the rise in blood sugar,,,,,
